Measured values from ChEMBL document CHEMBL2331380, “Evaluation of potential Myt1 kinase inhibitors by TR-FRET based binding assay” (Eur J Med Chem, 2013).

How the values were obtained:
[1] = Binding affinity to human full-length His-tagged Myt1 kinase expressed in HEK293 cells at 3 ug/ml by TR-FRET based binding assay
[2] = Binding affinity to human full-length His-tagged Myt1 kinase expressed in HEK293 cells at 30 ug/ml by TR-FRET based binding assay

Activity [1]	Activity [2]	SMILES
< 5%	< 5%	CCCCCCCCCCCCCCCC(=O)NC[C@H]1O[C@@H](OC[C@@H](COC(=O)CCCCCCCCCCCCCCC)OC(=O)CCCCCCCCCCCCCCC)[C@H](O)[C@@H](O)[C@@H]1O
< 5%	< 5%	CCCCCCCCCCCCCCCC(=O)NC[C@H]1O[C@@H](OC[C@@H](COC(=O)CCCCCCCCCCCCCCC)OC(=O)CCCCCCCCCCCCCCC)[C@H](O)[C@@H](O)[C@H]1O
< 5%	< 5%	CCCCCCCC(=O)NC[C@H]1O[C@@H](OC[C@@H](COC(=O)CCCCCCC)OC(=O)CCCCCCC)[C@H](O)[C@@H](O)[C@@H]1O
< 5%	< 5%	CCCCCCCCCCCCCCCC(=O)NC[C@H]1O[C@H](OC[C@@H](COC(=O)CCCCCCCCCCCCCCC)OC(=O)CCCCCCCCCCCCCCC)[C@@H](O)[C@@H](O)[C@@H]1O
< 5%	7.53%	CCCCCCCCCCCCCCCC(=O)NC[C@H]1O[C@@H](OC[C@@H](COC(=O)CCCCCCCCCCCCCCC)OC(=O)CCCCCCCCCCCCCCC)[C@@H](O)[C@@H](O)[C@@H]1O
< 5%	< 5%	CCCCCCCCCCCCCCCC(=O)NC[C@H]1O[C@H](OC[C@@H](COC(=O)CCCCCCCCCCCCCCC)OC(=O)CCCCCCCCCCCCCCC)[C@H](O)[C@@H](O)[C@H]1O
< 5%	< 5%	CCCCCCCCCCCCCCCC(=O)NC[C@H]1O[C@H](OC[C@@H](COC(=O)CCCCCCCCCCCCCCC)OC(=O)CCCCCCCCCCCCCCC)[C@H](O)[C@@H](O)[C@@H]1O
